Measurements as given in the NIST ThermoML archive (doi:10.1016/j.jct.2008.02.020).

Details: Liquid, Buoyancy - hydrostatic balance with magnetic suspension - one sinker

CCCCCCC [heptane]
Details | mass density [kg/m3]
233.15 K, 101.68 kPa | 733.289
233.15 K, 1104.1 kPa | 733.918
233.15 K, 2003.3 kPa | 734.481
233.15 K, 4006 kPa | 735.714
233.15 K, 6004.8 kPa | 736.928
233.15 K, 8009.5 kPa | 738.125
233.15 K, 9956.8 kPa | 739.277
233.15 K, 11864 kPa | 740.377
233.15 K, 13984 kPa | 741.588
233.15 K, 15995 kPa | 742.722
233.15 K, 17888 kPa | 743.774
233.15 K, 20074 kPa | 744.977
233.15 K, 22024 kPa | 746.029
233.15 K, 24018 kPa | 747.094
233.15 K, 25954 kPa | 748.113
233.15 K, 27944 kPa | 749.147
233.15 K, 29979 kPa | 750.192
253.15 K, 98.99 kPa | 717.086
253.15 K, 1101.5 kPa | 717.807
253.15 K, 2000.5 kPa | 718.446
253.15 K, 4006.3 kPa | 719.85
253.15 K, 6005.4 kPa | 721.223
253.15 K, 8147.8 kPa | 722.669
253.15 K, 10096 kPa | 723.959
253.15 K, 11827 kPa | 725.088
253.15 K, 13955 kPa | 726.459
253.15 K, 16060 kPa | 727.785
253.15 K, 18040 kPa | 729.014
253.15 K, 20020 kPa | 730.22
253.15 K, 22093 kPa | 731.465
253.15 K, 23828 kPa | 732.495
253.15 K, 25891 kPa | 733.701
253.15 K, 27739 kPa | 734.762
253.15 K, 29900 kPa | 735.987
273.15 K, 102.15 kPa | 700.687
273.15 K, 1101.3 kPa | 701.507
273.15 K, 2006.3 kPa | 702.244
273.15 K, 4005.4 kPa | 703.841
273.15 K, 6005.5 kPa | 705.403
273.15 K, 8197.5 kPa | 707.077
273.15 K, 10109 kPa | 708.507
273.15 K, 12114 kPa | 709.976
273.15 K, 14092 kPa | 711.403
273.15 K, 16116 kPa | 712.831
273.15 K, 18076 kPa | 714.19
273.15 K, 20096 kPa | 715.565
273.15 K, 22069 kPa | 716.883
273.15 K, 24102 kPa | 718.226
273.15 K, 25918 kPa | 719.397
273.15 K, 27991 kPa | 720.718
273.15 K, 29444 kPa | 721.633
293.15 K, 98.89 kPa | 683.986
293.15 K, 1104.3 kPa | 684.937
293.15 K, 2003.3 kPa | 685.779
293.15 K, 4003 kPa | 687.611
293.15 K, 6003.7 kPa | 689.394
293.15 K, 8007.4 kPa | 691.14
293.15 K, 10028 kPa | 692.854
293.15 K, 12139 kPa | 694.603
293.15 K, 14008 kPa | 696.118
293.15 K, 16160 kPa | 697.827
293.15 K, 18149 kPa | 699.368
293.15 K, 19992 kPa | 700.756
293.15 K, 22123 kPa | 702.362
293.15 K, 24036 kPa | 703.766
293.15 K, 25999 kPa | 705.175
293.15 K, 27983 kPa | 706.576
293.15 K, 29986 kPa | 707.965
313.15 K, 101.45 kPa | 666.898
313.15 K, 1102.2 kPa | 667.995
313.15 K, 2005.5 kPa | 668.973
313.15 K, 4004.5 kPa | 671.086
313.15 K, 6106.9 kPa | 673.238
313.15 K, 7941.2 kPa | 675.062
313.15 K, 9944.4 kPa | 676.997
313.15 K, 11841 kPa | 678.793
313.15 K, 13782 kPa | 680.575
313.15 K, 16032 kPa | 682.588
313.15 K, 17876 kPa | 684.2
313.15 K, 19748 kPa | 685.804
313.15 K, 21803 kPa | 687.518
313.15 K, 23829 kPa | 689.172
313.15 K, 25814 kPa | 690.765
313.15 K, 27801 kPa | 692.324
313.15 K, 29818 kPa | 693.872
333.15 K, 103 kPa | 649.298
333.15 K, 1106 kPa | 650.588
333.15 K, 2004.1 kPa | 651.723
333.15 K, 4003.6 kPa | 654.18
333.15 K, 6004.6 kPa | 656.549
333.15 K, 8005.6 kPa | 658.837
333.15 K, 9901.5 kPa | 660.933
333.15 K, 12083 kPa | 663.274
333.15 K, 14040 kPa | 665.309
333.15 K, 16005 kPa | 667.293
333.15 K, 17854 kPa | 669.109
333.15 K, 19985 kPa | 671.149
333.15 K, 21967 kPa | 672.997
333.15 K, 23926 kPa | 674.778
333.15 K, 25823 kPa | 676.467
333.15 K, 27823 kPa | 678.205
333.15 K, 30009 kPa | 680.058
353.15 K, 99.37 kPa | 631.037
353.15 K, 1182.8 kPa | 632.68
353.15 K, 2156.3 kPa | 634.131
353.15 K, 4140.7 kPa | 636.982
353.15 K, 6175.6 kPa | 639.78
353.15 K, 8138.9 kPa | 642.37
353.15 K, 10095 kPa | 644.851
353.15 K, 12083 kPa | 647.284
353.15 K, 14040 kPa | 649.596
353.15 K, 16039 kPa | 651.883
353.15 K, 18008 kPa | 654.064
353.15 K, 19996 kPa | 656.201
353.15 K, 21956 kPa | 658.247
353.15 K, 23925 kPa | 660.247
353.15 K, 25887 kPa | 662.188
353.15 K, 27855 kPa | 664.084
353.15 K, 29976 kPa | 666.077
373.15 K, 1164.3 kPa | 613.877
373.15 K, 2149.2 kPa | 615.631
373.15 K, 4123.5 kPa | 618.999
373.15 K, 5987 kPa | 622.014
373.15 K, 8094.8 kPa | 625.262
373.15 K, 10060 kPa | 628.151
373.15 K, 12066 kPa | 630.972
373.15 K, 14018 kPa | 633.61
373.15 K, 16044 kPa | 636.241
373.15 K, 18058 kPa | 638.765
373.15 K, 19976 kPa | 641.085
373.15 K, 21960 kPa | 643.408
373.15 K, 23948 kPa | 645.665
373.15 K, 25805 kPa | 647.712
373.15 K, 27898 kPa | 649.952
373.15 K, 29819 kPa | 651.952
393.15 K, 1101.9 kPa | 593.952
393.15 K, 2001.5 kPa | 595.905
393.15 K, 4002.8 kPa | 600.027
393.15 K, 6004.3 kPa | 603.884
393.15 K, 8005.5 kPa | 607.511
393.15 K, 10007 kPa | 610.942
393.15 K, 12111 kPa | 614.361
393.15 K, 14116 kPa | 617.466
393.15 K, 16097 kPa | 620.399
393.15 K, 18029 kPa | 623.142
393.15 K, 20054 kPa | 625.904
393.15 K, 22016 kPa | 628.483
393.15 K, 24006 kPa | 631.008
393.15 K, 25986 kPa | 633.434
393.15 K, 27952 kPa | 635.769
393.15 K, 29843 kPa | 638.037
